Laboratory results as given in ChEMBL document CHEMBL1938379, “Capture hydrolysis signals in the microsomal stability assay: molecular mechanisms of the alkyl ester drug and prodrug metabolism” (Bioorg Med Chem Lett, 2012).

test: Clearance in human liver microsomes at 1 uM measured after 60 mins by HPLC analysis; settings: liver microsomes

SMILES	microsomal CLint at 1 h, 1 µM [µL/min/mg]
CCOC(=O)c1ncn2c1CN(C)C(=O)c1cc(F)ccc1-2 [FLUMAZENIL]	10.6
COC(=O)C1=C(C)NC(C)=C(C(=O)OC(C)C)C1c1cccc2nonc12 (centres undefined) [ISRADIPINE]	> 300
CCOC(=O)[C@H](CCc1ccccc1)N[C@@H](C)C(=O)N1Cc2cc(OC)c(OC)cc2C[C@H]1C(=O)O [MOEXIPRIL]	< 8
CC1=C(C(=O)OC(C)C)C(c2cccc([N+](=O)[O-])c2)C(C(=O)OC2CN(C(c3ccccc3)c3ccccc3)C2)=C(N)N1 (centres undefined) [AZELNIDIPINE]	33.9
C#C[C@H](CC(=O)OCC)NC(=O)CCC(=O)Nc1ccc(C(=N)N)cc1 [XEMILOFIBAN]	< 8
COC(=O)C1=C(C#N)NC(C)=C(C(=O)OC(C)C)C1c1cccc([N+](=O)[O-])c1 (centres undefined) [NILVADIPINE]	205
COC(=O)[C@H]1[C@H]2C[C@@H]3c4[nH]c5cc(OC)ccc5c4CCN3C[C@H]2C[C@@H](OC(=O)c2cc(OC)c(OC)c(OC)c2)[C@@H]1OC [RESERPINE]	18.3
CCOC(=O)C1(c2ccccc2)CCCN(C)CC1 (centres undefined) [ETHOHEPTAZINE]	22.6
COC(=O)C1=C(C)NC(C)=C(C(=O)OCCN2CCN(C(c3ccccc3)c3ccccc3)CC2)C1c1cccc([N+](=O)[O-])c1 (centres undefined) [MANIDIPINE 6300]	93.4
COC(=O)C(c1ccccc1)C1CCCCN1 (centres undefined) [METHYLPHENIDATE]	11.1
CCOC(=O)[C@H](CCc1ccccc1)N[C@@H](C)C(=O)N1Cc2ccccc2C[C@H]1C(=O)O	8.5
COC(=O)C1=C(C)NC(C)=C(C(=O)OC(C)(C)CN(C)CCC(c2ccccc2)c2ccccc2)C1c1cccc([N+](=O)[O-])c1 (centres undefined) [LERCANIDIPINE]	125
CCOC(=O)[C@H](CCc1ccccc1)N[C@@H](C)C(=O)N1CC2(C[C@H]1C(=O)O)SCCS2	< 8
COC(=O)C1=C(C)NC(C)=C(C(=O)OCC(C)C)C1c1ccccc1[N+](=O)[O-] (centres undefined) [NISOLDIPINE]	> 300
CC[C@]12CCCN3CCc4c(n(c5ccccc45)[C@@](O)(C(=O)OC)C1)[C@@H]32 [VINCAMINE]	66
CCOC(=O)/C=C1\SC(N2CCCCC2)C(=O)N1C (centres undefined) [ETOZOLIN]	20.5
CCOC(=O)C1=C(C)NC(C)=C(C(=O)OC)C1c1cccc([N+](=O)[O-])c1 (centres undefined) [NITRENDIPINE]	166
CCC[C@H](N[C@@H](C)C(=O)N1[C@H](C(=O)O)C[C@@H]2CCCC[C@@H]21)C(=O)OCC [PERINDOPRIL]	10.7
COC(=O)[C@@H]1CC2=CC(=O)CC[C@]2(C)[C@@]23O[C@@H]2C[C@@]2(C)[C@@H](CC[C@@]24CCC(=O)O4)[C@H]13 [EPLERENONE]	7.9
CCOC(=O)[C@H](CCc1ccccc1)N[C@H]1CCc2ccccc2N(CC(=O)O)C1=O [BENAZEPRIL]	52.5
COC(=O)[C@@H]1[C@H]2C[C@H]3c4[nH]c5ccccc5c4CCN3C[C@@H]2CC[C@@H]1O [YOHIMBINE]	34.4
CCOC(=O)[C@H](CCc1ccccc1)N[C@H]1CS[C@H](c2cccs2)CN(CC(=O)O)C1=O [TEMOCAPRIL]	133
CCOC(=O)COc1ccc2c(C)c(CCN(CC)CC)c(=O)oc2c1 [CHROMONAR]	> 300
CCOC(=O)C1=C(C)NC(C)=C(C(=O)OCC)C1c1ccccc1/C=C/C(=O)OC(C)(C)C [LACIDIPINE]	99.2
CCOC(=O)c1c(N)sc2c1CCN(Cc1ccccc1)C2 [TINORIDINE]	71.2
CCOC(=O)[C@H](CCc1ccccc1)N[C@@H](C)C(=O)N1[C@H](C(=O)O)C[C@@H]2CCC[C@@H]21	46.1
COCCOC(=O)C1=C(C)NC(C)=C(C(=O)OC(C)C)C1c1cccc([N+](=O)[O-])c1 (centres undefined) [NIMODIPINE]	> 300
CCOC(=O)COc1ccc2c(=O)cc(-c3ccccc3)oc2c1 [EFLOXATE]	> 300

same assay, conditions: microsomes

SMILES	microsomal CLint at 1 h, 1 µM [µL/min/mg]
COC(=O)[C@H](c1ccccc1Cl)N1CCc2sccc2C1 [CLOPIDOGREL]	> 300
